{
  "source": "patent US20110082203A1",
  "about": "“PROCESS TO DIAGNOSE OR TREAT BRAIN INJURY” (priority 2008, published 2011)",
  "key": {"[1]": {"tested_on": "α-II spectrin breakdown products (SBDP)", "settings": "5 mg/kg i.p. five minutes prior to TBI", "method": "(§1) In vivo model of TBI injury model: A controlled cortical impact (CCI) device is used to model TBI on rats as previously described (Pike et al, 1998). Adult male (280-300 g) Sprague-Dawley rats (Harlan: Indianapolis, Ind.) are anesthetized with 4% isoflurane in a carrier gas of 1:1 O2/N2O (4 min.) and maintained in 2.5% isoflurane in the same carrier gas. Core body temperature is monitored continuously by a rectal thermistor probe and maintained at 37±1° C. by placing an adjustable temperature controlled heating pad beneath the rats. Animals are mounted in a stereotactic frame in a prone position and secured by ear and incisor bars. Following a midline cranial incision and reflection of the soft tissues, a unilateral (ipsilateral to site of impact) craniotomy (7 mm diameter) is performed adjacent to the central suture, midway between bregma and lambda. The dura mater is kept intact over the cortex. Brain trauma is produced by impacting the right (ipsilateral) cortex with a 5 mm diameter aluminum impactor tip (housed in a pneumatic cylinder) at a velocity of 3.5 m/s with a 1.6 mm compression and 150 ms dwell time.\nTissue and Sample Preparation: At the appropriate time points (2, 6, 24 hours and 2, 3, 5 days) after injury, animals are anesthetized and immediately sacrificed by decapitation. Brains are quickly removed, rinsed with ice cold PBS and halved. […]"}, "[2]": {"assay": "Body weight loss after controlled cortical impact (CCI) TBI", "format": "in vivo, rat", "settings": "5 mg/kg i.p. five minutes prior to TBI", "method": "as §1\nSubjects are administered CCI essentially as described in Example 2 and CSF is prepared as described in Example 4. […] The vehicle-treatment group receives an equal volume i.p. injection of isotonic saline. […]"}, "[3]": {"tested_on": "Fluoro-Jade positive neurons", "assay": "Fluoro-Jade staining of degenerating neurons following CCI, counted by optical fractionator", "format": "in vivo, rat", "description": "Fluoro-Jade is used to determine whether the presence of dicyclomine affects cell death following CCI. Experimental procedures are performed as described by Cox, C D, et al. 2008. Briefly, at 24 hours (±1 hr) following the perfusion, brains are rinsed in 0.1M PB (5 minutes×2), cryoprotected in 10% and 30% solutions of sucrose in 0.1M PB for 1 hour and 48 hours, respectively, and stored in the 30% sucrose/PB solution at −80° C. The brains are blocked and sectioned caudorostrally in 45 μm increments from Bregma—1.9 mm to Bregma—4.15 mm using a sliding microtome (American Optical Corp., model 860). The tissue sections are then mounted onto slides using distilled water and allowed to dry. For the Fluoro-Jade staining procedure (Schmued et al., 1997), the sections are rehydrated using successive 5 minute rinses in 100%, 75%, 50%, and 25% ethanol followed by 3 minutes in dH2O, placed in 0.06% KMNO4 for 15 minutes followed by 2 minutes in dH2O, and then stained in 0.0006% Fluoro-Jade B solution in 0.1% acetic acid for 30 minutes. The slides are air-dried overnight, immersed in xylene, and coverslipped with DPX.\nThe total number of Fluoro-Jade stained cells within the CA2/CA3 region of the dorsal hippocampus for each subject is estimated using the optical fractionator technique (West et al., 1991) with a computer-based system (Stereologer version 1.3, Systems Planning and Analysis, Inc., Alexandria, Va.). The border of the dorsal CA2/3 pyramidal cell layer within each section was outlined using a 2× objective, and the cells are then manually counted at the 40× magnification. For the cortical cell counts, a site of highly localized Fluoro-Jade positivity observed in the cortex adjacent to the site of impact serves as the ROI: the region was outlined at the 2× magnification and cells were quantified at 40× as with the hippocampal region. A numerical estimate of the total number of cells in each region of interest for each subject is calculated by the software using the equation:\nNobj=(N)(1/SSF)(1/ASF)(1/TSF)\nWhere N represents the sum of all objects counted for the subject, SSF the section sampling fraction, ASF the area sampling fraction, and TSF the thickness sampling fraction."}},
  "data": [
    {"molecule": "CCN(CC)CCOC(=O)C1(C2CCCCC2)CCCCC1", "note": "[Dicyclomine, dicyclomine]", "values": [
      {"measurement": "Production of SBDPs in CSF following TBI", "setting": "[1]", "value": "inhibits production of SBDPs"},
      {"measurement": "% Body Weight Loss", "setting": "[2]; mean +/- spread, * p<0.01 vs saline", "value": "*7.8 +/− 2.08%"},
      {"measurement": "Percent body weight loss compared to the saline-treated group", "setting": "[2]; p<0.01", "value": "significantly reduced"},
      {"measurement": "Mean number of Fluoro-Jade positive neurons, hippocampal ROI", "setting": "[3]; CA2/CA3 dorsal hippocampus, 24 hours post-TBI, 5 mg/kg i.p., vehicle 2982", "value": 2640},
      {"measurement": "Mean number of Fluoro-Jade positive neurons, cortical ROI", "setting": "[3]; cortex adjacent to impact site, 24 hours post-TBI, 5 mg/kg i.p., vehicle 84392", "value": 84452},
      {"measurement": "Effect on neuronal cell viability", "setting": "[3]; following TBI", "value": "no effect"},
      {"measurement": "Difference in Fluoro-Jade positive neurons between treatment groups (T-test)", "setting": "[3]; hippocampal and cortical ROIs, dicyclomine vs vehicle", "value": "no significant difference"}
    ]}
  ]
}
